Source: patent publication US20140350081A1, “INSECT G-COUPLED RECEPTORS USEFUL AS TARGETS FOR INSECTICIDES AND COMPOUNDS AND REAGENTS IDENTIFIED USING THE SAME” (priority 2011, published 2014)
Read-outs that look alike come from different tables or passages of the source.

Tests used:
Isdop2 [1] = target: T1, Isdop2 (Ixodes scapularis, UniProt A0ACM8DGL0); test: cAMP accumulation confirmation assay, cells stably expressing Isdop2; type: cell-based
[2] = system: adult Reticulitermes flavipes; test: Termite immersion assay; type: in vivo; conditions: Reticulitermes flavipes, immersion, adult termite; for mortality at 100 µM: 100 µM compound (Fipronil 500 μM); for mortality at 100000 µM: 100 mM compound (Fipronil 500 μM)
[3] = target: T2, human D1 dopamine receptor (hD1) (Homo sapiens, UniProt P21728); test: cAMP accumulation secondary assay, hD1-expressing cells; type: cell-based, H. sapiens
T2 construct: expressed in transfected cells
T2 sequence (P21728 whole entry): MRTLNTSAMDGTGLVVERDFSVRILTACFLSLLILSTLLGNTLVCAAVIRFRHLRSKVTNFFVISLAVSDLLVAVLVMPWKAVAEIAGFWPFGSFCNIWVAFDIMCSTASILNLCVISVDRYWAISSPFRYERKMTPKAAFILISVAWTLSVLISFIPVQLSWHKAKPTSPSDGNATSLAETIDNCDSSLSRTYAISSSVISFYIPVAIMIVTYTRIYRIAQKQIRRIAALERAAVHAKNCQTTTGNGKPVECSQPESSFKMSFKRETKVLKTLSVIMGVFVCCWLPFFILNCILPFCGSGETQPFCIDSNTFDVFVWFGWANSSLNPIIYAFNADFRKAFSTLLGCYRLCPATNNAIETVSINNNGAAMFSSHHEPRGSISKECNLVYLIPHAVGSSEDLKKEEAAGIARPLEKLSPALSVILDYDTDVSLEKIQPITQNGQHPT

AaDOP2 [4] = target: T3, AaDOP2 (Aedes aegypti, UniProt H6D5H2); test: LOPAC1280 antagonist screen in HEK-CRELuc-Aadop2 cells; type: cell-based; conditions: 10 μM compound, 300 nM dopamine, quadruplicate
T3 sequence (H6D5H2 entry or part of it): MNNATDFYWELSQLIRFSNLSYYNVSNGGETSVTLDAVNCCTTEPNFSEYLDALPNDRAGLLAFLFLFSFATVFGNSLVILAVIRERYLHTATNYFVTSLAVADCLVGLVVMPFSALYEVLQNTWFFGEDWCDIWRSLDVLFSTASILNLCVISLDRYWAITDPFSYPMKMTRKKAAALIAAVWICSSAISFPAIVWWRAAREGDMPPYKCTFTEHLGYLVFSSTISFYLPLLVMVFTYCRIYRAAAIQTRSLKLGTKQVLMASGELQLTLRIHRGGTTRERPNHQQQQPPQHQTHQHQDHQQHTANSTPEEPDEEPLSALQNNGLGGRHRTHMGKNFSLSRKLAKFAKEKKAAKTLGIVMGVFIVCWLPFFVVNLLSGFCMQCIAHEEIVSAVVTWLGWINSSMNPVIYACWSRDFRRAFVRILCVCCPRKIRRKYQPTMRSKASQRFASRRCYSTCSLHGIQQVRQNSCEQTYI

Ae. aegypti L3 larvae [5] = test: whole plant or invertebrate; conditions: Aedes aegypti
[6] = system: adult male Blatella germanica; test: Cockroach assay of Table 16 (title contact assay, text feeding assay); type: in vivo; conditions: 200 mM compound
Ae. aegypti larvae = test: whole plant or invertebrate; type: in vivo; conditions: Aedes aegypti; 400 μM, L4 larvae, 24 hours post-treatment; read-out: average larval mortality
Protocol: Single dose-point and dose response in vivo mosquito bioassays were used to assess the toxicity of selected AaDop2 receptor antagonists identified in the chemical screen. Larvae of Ae. aegypti (Liverpool strain) were reared under standard laboratory conditions on a 12 hr day/night cycle at 75% RH and 28° C., and bioassays were conducted at room temperature (22-24° C.). Larvae were transferred from standard rearing trays into six-well tissue culture plates (Corning, Inc. Corning, N.Y.) using a small plastic pipette. Ten L4-stage larvae were included per well, each containing five ml of de-ionized water and an assigned drug concentration. Controls were conducted similarly but lacked a drug treatment. Bioassays employed a double-blind experimental design, and larval mortality was scored 24 hr following administration of drugs. Single dose-point assays were conducted using 400 μM drug and included three biological replicates each consisting of 100 larvae.

Isdop1 [7] = target: T4, Isdop1 (Ixodes scapularis, UniProt A0ACM8FJJ0); test: cAMP accumulation confirmation assay, cells stably expressing Isdop1; type: cell-based
AaDOP2 [8] = target: T3, AaDOP2; test: HTRF cAMP accumulation concentration response assay (Cisbio Dynamic 2); type: cell-based
Isdop2 [9] = target: T1, Isdop2; test: cell-based; conditions: read-out: % Inhibition (of response to dopamine), Isdop2 screen
AaDOP2 [10] = target: T3, AaDOP2
Ae. aegypti L3 larvae [11] = test: Ae. aegypti L3 concentration response and time course assays; type: in vivo, Aedes aegypti; conditions: Aedes aegypti
Protocol: Briefly, chemistries were diluted to appropriate concentration in water and added to the wells of 24-well plates containing 5 L3 stage Ae. aegypti larvae to achieve a final concentration of 400, 200, 100, 50 and 25 μM in 1 ml sterile RO water. Chemistries were tested in quadruplicate at each concentration. […] Results reported here represent a minimum of three independent CRC experiments (i.e., n=3).

[12] = system: adult male Blatella germanica; test: Cockroach contact assay (topical application); type: in vivo; conditions: 200 mM compound
Summary of the method: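 Adult male German cockroaches (Blatella germanica) were dosed by topical application of compound to the ventral thorax, giving an effective dose of 50-80 μg depending on compound. Each test was a single-point dose run in triplicate in 24-well plates. Insects were incubated at 22° C. and scored for mortality, with commercial insecticides included as positive controls.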

Isdop2 [13] = target: T1, Isdop2; test: CRE-Luc reporter assay, HEK cells stably expressing Isdop2; type: cell-based
AaDOP1 [14] = target: T5, AaDOP1 (Aedes aegypti, UniProt H6D5H1); conditions: single dose 10 μM, transient expression, n=3
T5 sequence (H6D5H1 entry or part of it): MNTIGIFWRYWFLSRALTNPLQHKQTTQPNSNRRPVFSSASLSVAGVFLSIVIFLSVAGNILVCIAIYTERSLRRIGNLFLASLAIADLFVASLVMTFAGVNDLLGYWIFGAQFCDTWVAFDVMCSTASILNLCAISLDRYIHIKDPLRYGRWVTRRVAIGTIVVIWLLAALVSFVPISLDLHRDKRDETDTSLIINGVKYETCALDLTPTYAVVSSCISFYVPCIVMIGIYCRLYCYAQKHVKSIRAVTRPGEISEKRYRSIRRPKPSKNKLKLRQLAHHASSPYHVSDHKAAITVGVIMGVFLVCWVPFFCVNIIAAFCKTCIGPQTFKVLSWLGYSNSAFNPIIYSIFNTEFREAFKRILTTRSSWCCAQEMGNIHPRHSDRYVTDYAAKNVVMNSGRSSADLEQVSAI

AaDOP2 [15] = target: T3, AaDOP2; conditions: single dose 10 μM, transient expression, n=3
AaDOP1 [16] = target: T5, AaDOP1; test: CRELuc reporter dose-response in HEK293 cells stably expressing AaDOP1; type: cell-based; conditions: HEK293 cells stably expressing CRELuc reporter and AaDOP1
Isdop1 [17] = target: T4, Isdop1; test: CRE-Luc reporter assay, HEK cells stably expressing Isdop1; type: cell-based
AaDOP2 [18] = target: T3, AaDOP2; test: cell-based
Ae. aegypti L3 larvae [19] = conditions: 400 μM, three independent experiments
[20] = 48 h, read-out: Toxicity to Aedes aegypti larvae (mortality) 48 hours, 400 μM, L3 larvae, three independent experiments
[21] = 72 h, read-out: Toxicity to Aedes aegypti larvae (mortality) 72 hours, 400 μM, L3 larvae, three independent experiments

T1 sequence (A0ACM8DGL0 entry or part of it): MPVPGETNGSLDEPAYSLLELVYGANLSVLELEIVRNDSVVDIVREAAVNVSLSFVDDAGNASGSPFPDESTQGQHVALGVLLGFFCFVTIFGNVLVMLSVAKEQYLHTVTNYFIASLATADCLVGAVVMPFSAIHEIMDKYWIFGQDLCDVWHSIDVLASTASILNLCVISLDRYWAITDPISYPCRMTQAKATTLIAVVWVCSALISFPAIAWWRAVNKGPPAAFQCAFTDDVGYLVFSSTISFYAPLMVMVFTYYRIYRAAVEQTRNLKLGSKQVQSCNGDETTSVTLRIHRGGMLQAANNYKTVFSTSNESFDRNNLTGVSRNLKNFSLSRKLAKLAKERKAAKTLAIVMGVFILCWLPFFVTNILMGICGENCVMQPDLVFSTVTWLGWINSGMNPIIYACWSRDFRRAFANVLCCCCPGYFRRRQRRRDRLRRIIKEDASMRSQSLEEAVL

In the case of CN(C)CCC=C1c2ccccc2CCc2ccccc21 [Amitriptyline, (3-(10,11-dihydro-5H-dibenzo[a,d][7]annulen-5-ylidene)-N,N-dimethylpropan-1-amine)], the IC50 (Isdop2 [1]) is reported as 2900 nM, the mortality at 100 µM ([2]; 24 h, read-out: % Mortality 24 hrs) is reported as 40% and the mortality at 100000 µM ([2]; 48 h, read-out: % Mortality 48 hrs) is reported as 40%. For the same compound, the mortality at 100000 µM ([2]; 72 h, read-out: % Mortality 72 hrs) was 60%, the mortality at 100000 µM ([2]; 120 h, read-out: % Mortality 120 hrs) was 70% and the mortality at 100 µM ([2]; 240 h, read-out: % Mortality 240 hrs) was 70%. For the same compound, the IC50 ([3]; read-out: IC50 value (at 100 nM dopamine for hD1), 100 nM dopamine, direct cAMP accumulation) was 470 ± 49 nM, the “% of the SCH23390 effect” value (AaDOP2 [4]) was 90% and the mortality at 400 µM (Ae. aegypti L3 larvae [5]; 24 h, read-out: Toxicity to Aedes aegypti larvae (mortality) 24 hours, 400 μM, L3 larvae, three independent experiments) was 63%. The mortality at 400 µM (Ae. aegypti L3 larvae [5]; [20]) was 87%, the mortality at 400 µM (Ae. aegypti L3 larvae [5]; [21]) was 93% and the “% Mortality 24 hrs” value [6] was 3%. The “% Mortality 48 hrs” value [6] was 20%, the “% Mortality 72 hrs” value [6] was 23% and the “% Mortality 120 hrs” value [6] was 30%. For the same compound, the mortality at 400 µM (Ae. aegypti larvae) was 93%, the IC50 (Isdop1 [7]) was 77000 nM and the IC50 (AaDOP2 [8]; AaDOP2 expressing cells in the presence of dopamine, No Inhibition = <10% inhibition at 3 μM test compound, read-out: IC50 ± S.E.M. (nM), HTRF cAMP assay) was 6.5 ± 0.92 nM. The IC50 (AaDOP2 [8]; Avg IC50 (μM), in vitro Concentration Response Curve assay, n = 2, relative to control antagonist Amitriptyline) was 7 nM, the inhibition at 10 µM (Isdop2 [9]) was 87% and the “Relative fold selectivity for AaDOP2 vs. hD1” value (AaDOP2 [10]; ratio of IC50 values hD1/AaDOP2) was 36 fold. For the same compound, the IC50 (AaDOP2 [10]; read-out: Affinity (Aedesdop2), values equal the Table 3 IC50 values) was 14 nM, the LC50 (Ae. aegypti L3 larvae [11]) was 78000 nM and the “% Mortality 24 hrs” value [12] was 5%. For the same compound, the “% Mortality 48 hrs” value [12] was 20%, the “% Mortality 72 hrs” value [12] was 25% and the “% Mortality 120 hrs” value [12] was 30%. The “% Mortality 240 hrs” value [12] was 35%.

In the case of NCCc1ccc(O)c(O)c1 [Dopamine], the EC50 (Isdop2 [13]) is reported as roughly 145 nM, the “increase of intracellular cAMP, AaDOP1” value (AaDOP1 [14]) is reported as 2.7±0.6 fold and the “increase of intracellular cAMP, AaDOP2” value (AaDOP2 [15]) is reported as 48±14 fold. It also gave an EC50 (AaDOP1 [16]) of 3.1 ± 1.1 nM and an EC50 (Isdop1 [17]) of roughly 31 nM.

Work on CSc1ccc2c(c1)C(N1CCN(C)CC1)Cc1ccccc1S2 (centres unmarked) [Methiothepin, (1-methyl-4-(8-(methylthio)-10,11-dihydrodibenzo-[b,f]thiepin-10-yl)piperazines)] yielded an IC50 (Isdop2 [1]) of 85 nM, an IC50 (AaDOP2 [18]) of 14 ± 5.1 nM and an IC50 [3] of 80 ± 11 nM. For the same compound, the “% of the SCH23390 effect” value (AaDOP2 [4]) was 99%, the mortality at 400 µM (Ae. aegypti L3 larvae [5]; 0.5 h, read-out: percent mortality 0.5 hr, 400 uM, L3 larvae, value for this scoring time) was 10% and the mortality at 400 µM (Ae. aegypti L3 larvae [5]; 1 h, read-out: percent mortality 1 hr, 400 uM, L3 larvae, per scoring time) was 0%. The mortality at 400 µM (Ae. aegypti L3 larvae [5]; 2 h, read-out: percent mortality 2 hr, 400 uM, L3 larvae, per scoring time) was 20%, the mortality at 400 µM (Ae. aegypti L3 larvae [5]; 3 h, read-out: mortality within three hours, 400 μM, L3 larvae) was greater than 70% and the mortality at 400 µM (Ae. aegypti L3 larvae [5]; 3 h, read-out: percent mortality 3 hr, 400 uM, L3 larvae, per scoring time) was 0%. The mortality at 400 µM (Ae. aegypti L3 larvae [5]; 4 h, read-out: percent mortality 4 hr, 400 uM, L3 larvae, per scoring time) was 0%, the mortality at 400 µM (Ae. aegypti L3 larvae [5]; 24 h, read-out: percent mortality 24 hr, 400 uM, L3 larvae, per scoring time) was 0% and the mortality at 400 µM (Ae. aegypti L3 larvae [5]; [20]) was 100%. For the same compound, the mortality at 400 µM (Ae. aegypti L3 larvae [5]; 48 h, read-out: percent mortality 48 hr, 400 uM, L3 larvae, per scoring time) was 0%, the mortality at 400 µM (Ae. aegypti L3 larvae [5]; 72 h, read-out: Cumulative % Mortality (72 hrs), 400 uM, L3 larvae) was 100% and the mortality at 400 µM (Ae. aegypti L3 larvae [5]; [21]) was 100%. The mortality at 400 µM (Ae. aegypti L3 larvae [5]; 72 h, read-out: percent mortality 72 hr, 400 uM, L3 larvae, per scoring time) was 0%, the “Toxicity to Aedes aegypti larvae (mortality) 24 hours” value (Ae. aegypti L3 larvae [19]) was 100% and the IC50 (Isdop1 [7]) was 950 nM. For the same compound, the inhibition at 10 µM (Isdop2 [9]) was 100% and the “Relative fold selectivity for AaDOP2 vs. hD1” value (AaDOP2 [10]) was 5.7 fold.
